Assay results reported in ChEMBL document CHEMBL5465560, “Selectivity Literature for EUbOPEN Chemogenomic Library” (2024).

Tests used:
[1] = target: T1, Non-receptor tyrosine-protein kinase TNK1 (Homo sapiens) (UniProt Q13470); assay: Selectivity interaction (KinomeScan (DiscoverX)) EUB0001049a TNK1; conditions: at 1 µM
T1 sequence (whole entry): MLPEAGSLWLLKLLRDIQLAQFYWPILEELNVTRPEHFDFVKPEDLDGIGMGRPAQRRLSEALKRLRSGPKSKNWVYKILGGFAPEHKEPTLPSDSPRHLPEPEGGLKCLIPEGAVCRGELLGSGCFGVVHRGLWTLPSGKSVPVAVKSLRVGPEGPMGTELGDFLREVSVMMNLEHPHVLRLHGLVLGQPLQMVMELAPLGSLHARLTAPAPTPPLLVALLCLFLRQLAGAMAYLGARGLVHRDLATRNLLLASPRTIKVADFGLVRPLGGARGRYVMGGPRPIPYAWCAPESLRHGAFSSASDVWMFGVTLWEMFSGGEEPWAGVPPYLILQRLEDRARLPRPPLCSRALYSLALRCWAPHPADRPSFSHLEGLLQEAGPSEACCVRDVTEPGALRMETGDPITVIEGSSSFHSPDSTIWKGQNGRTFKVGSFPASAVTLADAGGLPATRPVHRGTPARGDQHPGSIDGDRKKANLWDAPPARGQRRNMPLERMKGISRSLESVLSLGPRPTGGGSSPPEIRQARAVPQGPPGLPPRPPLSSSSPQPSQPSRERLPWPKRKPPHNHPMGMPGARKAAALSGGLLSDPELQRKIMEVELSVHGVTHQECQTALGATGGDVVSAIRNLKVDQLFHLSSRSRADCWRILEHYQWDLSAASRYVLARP

[2] = target: T2, Mitogen-activated protein kinase 8 (Homo sapiens, UniProt P45983); assay: Selectivity interaction (KinomeScan (DiscoverX)) EUB0000229b MAPK8; conditions: at 10 µM
T2 sequence (P45983 whole entry): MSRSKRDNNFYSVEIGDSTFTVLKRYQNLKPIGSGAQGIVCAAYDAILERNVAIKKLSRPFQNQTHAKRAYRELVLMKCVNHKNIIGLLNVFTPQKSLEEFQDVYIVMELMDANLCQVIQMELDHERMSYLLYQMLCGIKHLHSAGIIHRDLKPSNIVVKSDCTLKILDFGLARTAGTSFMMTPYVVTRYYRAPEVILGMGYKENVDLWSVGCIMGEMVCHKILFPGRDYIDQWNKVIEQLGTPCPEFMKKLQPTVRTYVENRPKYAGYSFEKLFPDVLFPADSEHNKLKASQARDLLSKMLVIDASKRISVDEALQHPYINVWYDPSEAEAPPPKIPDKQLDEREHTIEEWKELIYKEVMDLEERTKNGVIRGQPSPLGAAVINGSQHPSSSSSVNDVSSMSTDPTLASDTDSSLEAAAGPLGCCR

[3] = target: Ribosomal protein S6 kinase alpha-1 (Homo sapiens, UniProt Q15418); assay: Selectivity interaction (ActivX KiNativ screen (kinase selectivity in THP-1 cell lysates)) EUB0000639a RPS6KA1; type: subcellular; conditions: lysate, at 0.2 µM
Sequence of Ribosomal protein S6 kinase alpha-1 (Q15418 whole entry): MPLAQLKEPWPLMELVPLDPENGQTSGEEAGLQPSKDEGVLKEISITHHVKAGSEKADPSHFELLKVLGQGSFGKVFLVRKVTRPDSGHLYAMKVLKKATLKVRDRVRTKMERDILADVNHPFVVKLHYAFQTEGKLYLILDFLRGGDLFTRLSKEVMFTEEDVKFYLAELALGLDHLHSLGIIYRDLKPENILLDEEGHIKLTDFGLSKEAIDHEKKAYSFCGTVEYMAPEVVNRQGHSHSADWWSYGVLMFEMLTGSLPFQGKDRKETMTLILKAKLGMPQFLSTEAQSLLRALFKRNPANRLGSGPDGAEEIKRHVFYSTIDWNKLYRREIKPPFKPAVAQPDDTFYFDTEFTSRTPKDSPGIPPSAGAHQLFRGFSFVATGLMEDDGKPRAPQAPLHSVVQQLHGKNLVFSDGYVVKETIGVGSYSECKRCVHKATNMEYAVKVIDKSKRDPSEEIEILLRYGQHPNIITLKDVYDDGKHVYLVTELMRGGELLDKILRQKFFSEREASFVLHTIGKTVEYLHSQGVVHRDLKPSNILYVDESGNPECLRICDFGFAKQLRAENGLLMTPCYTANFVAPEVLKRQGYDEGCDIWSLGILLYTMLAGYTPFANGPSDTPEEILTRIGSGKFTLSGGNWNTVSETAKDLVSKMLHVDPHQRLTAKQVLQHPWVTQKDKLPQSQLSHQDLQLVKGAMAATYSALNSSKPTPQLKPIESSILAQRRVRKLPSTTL

[4] = target: Ribosomal protein S6 kinase alpha-4 (Homo sapiens) (UniProt O75676); assay: Selectivity interaction (Kinase screening (Nanosyn)) EUB0000604a RPS6KA4
Sequence of Ribosomal protein S6 kinase alpha-4 (Homo sapiens) (O75676 whole entry, looked up): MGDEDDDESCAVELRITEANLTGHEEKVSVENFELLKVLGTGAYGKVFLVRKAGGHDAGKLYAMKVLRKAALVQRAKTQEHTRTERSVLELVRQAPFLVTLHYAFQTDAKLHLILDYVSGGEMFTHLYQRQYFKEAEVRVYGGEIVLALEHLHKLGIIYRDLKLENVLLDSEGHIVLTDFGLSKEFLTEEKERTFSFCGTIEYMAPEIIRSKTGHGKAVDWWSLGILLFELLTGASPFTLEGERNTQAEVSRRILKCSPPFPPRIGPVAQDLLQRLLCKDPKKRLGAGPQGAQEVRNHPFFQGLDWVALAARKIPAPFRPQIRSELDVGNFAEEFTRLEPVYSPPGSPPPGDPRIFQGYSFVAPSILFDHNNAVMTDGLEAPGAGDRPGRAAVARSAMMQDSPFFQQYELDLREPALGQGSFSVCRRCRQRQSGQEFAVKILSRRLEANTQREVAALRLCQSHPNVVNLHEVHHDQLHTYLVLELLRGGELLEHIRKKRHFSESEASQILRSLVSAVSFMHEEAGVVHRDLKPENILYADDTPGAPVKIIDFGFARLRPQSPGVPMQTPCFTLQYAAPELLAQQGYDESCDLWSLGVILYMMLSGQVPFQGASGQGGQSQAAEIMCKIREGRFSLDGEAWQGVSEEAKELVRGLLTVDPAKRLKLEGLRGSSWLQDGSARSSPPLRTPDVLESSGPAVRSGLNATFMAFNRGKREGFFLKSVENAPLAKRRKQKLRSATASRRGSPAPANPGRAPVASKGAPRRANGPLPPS

[5] = target: Protein-tyrosine kinase 2-beta (Homo sapiens) (UniProt Q14289); assay: Selectivity interaction (KinomeScan (DiscoverX)) EUB0000045b PTK2B
Sequence of Protein-tyrosine kinase 2-beta (Homo sapiens) (Q14289 whole entry, looked up): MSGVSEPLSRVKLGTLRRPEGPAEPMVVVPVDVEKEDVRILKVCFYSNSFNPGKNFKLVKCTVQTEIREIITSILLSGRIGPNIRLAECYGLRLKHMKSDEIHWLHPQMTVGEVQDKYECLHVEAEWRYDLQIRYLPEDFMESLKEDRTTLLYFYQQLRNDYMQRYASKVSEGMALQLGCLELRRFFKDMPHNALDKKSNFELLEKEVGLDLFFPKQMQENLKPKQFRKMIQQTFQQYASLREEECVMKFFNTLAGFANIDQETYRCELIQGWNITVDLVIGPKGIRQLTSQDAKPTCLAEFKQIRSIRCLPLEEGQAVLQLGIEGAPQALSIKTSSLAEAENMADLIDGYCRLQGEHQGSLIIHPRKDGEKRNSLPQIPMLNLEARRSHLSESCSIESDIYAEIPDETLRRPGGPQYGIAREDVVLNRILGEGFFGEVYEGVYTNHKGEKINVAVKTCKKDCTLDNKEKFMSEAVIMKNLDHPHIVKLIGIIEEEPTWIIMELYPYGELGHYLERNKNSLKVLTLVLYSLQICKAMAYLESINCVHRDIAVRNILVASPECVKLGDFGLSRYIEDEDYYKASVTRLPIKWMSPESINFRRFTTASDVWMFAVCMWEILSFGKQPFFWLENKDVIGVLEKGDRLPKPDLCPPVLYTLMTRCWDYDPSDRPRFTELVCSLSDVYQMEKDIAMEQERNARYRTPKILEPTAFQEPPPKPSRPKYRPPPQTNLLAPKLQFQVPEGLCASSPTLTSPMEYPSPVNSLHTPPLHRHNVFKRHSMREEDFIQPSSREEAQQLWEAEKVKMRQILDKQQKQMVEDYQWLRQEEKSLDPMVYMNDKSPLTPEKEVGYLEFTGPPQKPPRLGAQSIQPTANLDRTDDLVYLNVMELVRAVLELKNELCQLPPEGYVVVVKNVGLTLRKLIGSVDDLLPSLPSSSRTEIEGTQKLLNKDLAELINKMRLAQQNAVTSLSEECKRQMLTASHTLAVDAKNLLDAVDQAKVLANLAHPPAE

[6] = target: T2, Mitogen-activated protein kinase 8; assay: Selectivity interaction (Upstate Kinase Profiler service (Millipore)) EUB0000056c MAPK8; conditions: at 1 µM
[7] = target: Serine/threonine-protein kinase PAK 2 (Homo sapiens) (UniProt Q13177); assay: Selectivity interaction (KinomeScan (DiscoverX)) EUB0000695a PAK2; conditions: at 100 nM
Sequence of Serine/threonine-protein kinase PAK 2 (Homo sapiens) (Q13177 whole entry): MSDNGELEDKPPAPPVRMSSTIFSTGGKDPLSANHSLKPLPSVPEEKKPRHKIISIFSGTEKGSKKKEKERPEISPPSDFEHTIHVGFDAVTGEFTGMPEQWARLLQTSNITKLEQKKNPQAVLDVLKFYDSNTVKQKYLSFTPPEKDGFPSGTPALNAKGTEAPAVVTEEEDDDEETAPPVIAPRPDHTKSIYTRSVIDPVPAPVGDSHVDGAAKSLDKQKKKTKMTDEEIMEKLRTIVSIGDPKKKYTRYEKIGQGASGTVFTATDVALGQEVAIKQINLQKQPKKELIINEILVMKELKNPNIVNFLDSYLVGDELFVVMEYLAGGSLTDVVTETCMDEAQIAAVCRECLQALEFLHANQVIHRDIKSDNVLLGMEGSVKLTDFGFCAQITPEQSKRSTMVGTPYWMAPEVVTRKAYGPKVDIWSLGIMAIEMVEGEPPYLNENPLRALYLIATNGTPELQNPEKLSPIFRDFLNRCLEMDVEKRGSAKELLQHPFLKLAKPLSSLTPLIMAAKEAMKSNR

[8] = target: Tyrosine-protein kinase Fyn (Homo sapiens) (UniProt P06241); assay: Selectivity interaction (LanthaScreen Eu Kinase Binding Assay) EUB0001632a FYN; conditions: at 10 µM
Sequence of Tyrosine-protein kinase Fyn (Homo sapiens) (P06241 2-537 limits assumed): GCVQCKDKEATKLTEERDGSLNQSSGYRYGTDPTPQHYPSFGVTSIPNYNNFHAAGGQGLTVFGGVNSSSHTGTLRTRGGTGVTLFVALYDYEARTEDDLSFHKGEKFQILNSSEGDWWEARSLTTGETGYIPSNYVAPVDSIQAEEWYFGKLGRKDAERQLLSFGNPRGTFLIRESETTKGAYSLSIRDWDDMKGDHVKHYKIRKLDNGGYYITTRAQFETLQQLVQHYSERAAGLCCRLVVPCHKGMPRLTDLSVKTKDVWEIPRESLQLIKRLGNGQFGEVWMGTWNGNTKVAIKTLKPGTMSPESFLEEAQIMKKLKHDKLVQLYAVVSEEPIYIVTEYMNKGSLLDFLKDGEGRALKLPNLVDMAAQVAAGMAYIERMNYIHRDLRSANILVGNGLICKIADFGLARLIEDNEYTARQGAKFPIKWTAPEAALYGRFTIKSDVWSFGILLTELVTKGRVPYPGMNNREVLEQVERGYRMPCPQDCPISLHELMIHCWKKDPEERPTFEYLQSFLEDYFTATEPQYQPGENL

[9] = target: Ribosomal protein S6 kinase alpha-6 (Homo sapiens, UniProt Q9UK32); assay: Selectivity interaction (ProQinase) EUB0000171b RPS6KA6
Sequence of Ribosomal protein S6 kinase alpha-6 (Q9UK32 whole entry): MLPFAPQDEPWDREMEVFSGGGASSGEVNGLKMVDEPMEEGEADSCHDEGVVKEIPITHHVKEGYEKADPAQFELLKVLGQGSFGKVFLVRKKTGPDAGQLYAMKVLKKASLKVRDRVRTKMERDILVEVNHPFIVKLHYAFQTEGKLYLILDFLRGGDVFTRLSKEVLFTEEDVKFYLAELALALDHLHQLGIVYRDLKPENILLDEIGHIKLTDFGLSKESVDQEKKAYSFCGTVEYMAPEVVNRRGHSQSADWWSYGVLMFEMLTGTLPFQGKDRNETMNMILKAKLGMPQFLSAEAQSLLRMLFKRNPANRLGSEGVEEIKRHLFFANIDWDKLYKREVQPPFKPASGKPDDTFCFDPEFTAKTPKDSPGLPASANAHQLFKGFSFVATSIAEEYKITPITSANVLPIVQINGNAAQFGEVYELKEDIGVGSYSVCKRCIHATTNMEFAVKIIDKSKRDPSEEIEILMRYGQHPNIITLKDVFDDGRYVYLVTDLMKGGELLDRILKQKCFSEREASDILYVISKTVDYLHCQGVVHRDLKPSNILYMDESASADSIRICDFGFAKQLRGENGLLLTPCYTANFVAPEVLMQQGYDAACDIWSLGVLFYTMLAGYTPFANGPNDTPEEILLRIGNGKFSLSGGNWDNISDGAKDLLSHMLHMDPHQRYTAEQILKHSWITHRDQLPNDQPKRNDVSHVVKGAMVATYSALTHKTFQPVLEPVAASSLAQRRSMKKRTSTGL

[10] = target: T3, Serine/threonine-protein kinase PLK4 (Homo sapiens) (UniProt O00444); assay: Selectivity interaction (ProQinase) EUB0000171b PLK4
T3 sequence (whole entry): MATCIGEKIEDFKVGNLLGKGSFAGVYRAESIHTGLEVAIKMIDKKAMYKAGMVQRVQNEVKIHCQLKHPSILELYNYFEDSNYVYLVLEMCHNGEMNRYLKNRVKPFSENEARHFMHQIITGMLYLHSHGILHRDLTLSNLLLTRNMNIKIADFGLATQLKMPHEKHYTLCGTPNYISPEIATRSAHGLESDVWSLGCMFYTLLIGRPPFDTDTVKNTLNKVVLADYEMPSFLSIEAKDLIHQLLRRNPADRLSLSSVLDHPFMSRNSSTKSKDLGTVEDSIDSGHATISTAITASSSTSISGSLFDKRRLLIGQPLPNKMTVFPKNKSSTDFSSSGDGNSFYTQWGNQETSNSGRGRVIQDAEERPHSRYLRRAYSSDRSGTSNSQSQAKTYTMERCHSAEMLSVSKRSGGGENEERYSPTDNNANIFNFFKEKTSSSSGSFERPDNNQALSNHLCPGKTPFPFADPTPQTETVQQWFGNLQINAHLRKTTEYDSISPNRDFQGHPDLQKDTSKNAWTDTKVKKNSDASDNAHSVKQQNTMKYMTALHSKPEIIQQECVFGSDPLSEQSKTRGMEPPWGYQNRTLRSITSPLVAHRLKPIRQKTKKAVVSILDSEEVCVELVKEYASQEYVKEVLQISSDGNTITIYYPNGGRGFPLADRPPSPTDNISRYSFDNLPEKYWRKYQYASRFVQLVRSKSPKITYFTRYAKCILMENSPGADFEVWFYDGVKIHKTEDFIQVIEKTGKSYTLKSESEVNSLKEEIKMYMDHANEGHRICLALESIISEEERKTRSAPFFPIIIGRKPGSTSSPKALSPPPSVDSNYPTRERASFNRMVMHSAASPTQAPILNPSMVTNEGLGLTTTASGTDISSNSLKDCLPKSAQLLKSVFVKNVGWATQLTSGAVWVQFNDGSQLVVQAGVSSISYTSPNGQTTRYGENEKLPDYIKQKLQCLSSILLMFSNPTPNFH

SMILES: COc1cc(Nc2nc(C)cc(-c3cnn4nc(OC)ccc34)n2)cc(C(F)(F)F)c1
- % of control [1]: 80%

SMILES: COc1cc(N(C)c2ccnc3ccc(C(F)(F)F)cc23)cc(OC)c1OC
- % binding [2]: 72%

SMILES: CC[C@@H]1[C@H](F)C(=O)N[C@@H]1COc1nccc2cc(C(N)=O)c(OC)cc12 [ZIMLOVISERTIB]
- % of inhibition [3]: -12.2%

SMILES: Cc1cnc(Nc2ccc(F)cc2Cl)nc1-c1c[nH]c(C(=O)N[C@H](CO)c2cccc(Cl)c2)c1
- % of inhibition [4]: 6%

SMILES: C=CC(=O)Nc1cc(-n2c(=O)ccc3cnc4ccc(-c5ccc(NS(C)(=O)=O)cc5)cc4c32)ccc1C
- % of control ([5]; at 1 µM): 100%
- % of control ([5]; at 10 µM): 92%

SMILES: Cc1ccc(-c2ccc3c(ccc4sc5c(c43)NC[C@@H](C)NC5=O)n2)cn1
- % of inhibition [6]: 10%

SMILES: Cc1cc(F)c(C(=O)Nc2cccc(-c3nncn3C(C)C)n2)cc1-n1cnc(C2CC2)c1
- % of control [7]: 100%

SMILES: Cn1cc(-n2cnc3c(NCc4nc5cc(Cl)c(Cl)cc5[nH]4)nc(N4CCOCC4)nc32)cn1
- % of inhibition [8]: -11.6%

SMILES: C=CC(=O)Nc1cccc(C(=O)Nc2ccc(Nc3cc(-c4[nH]c(SC)nc4C)ccn3)cc2)c1
- % of control ([9]; at 1 µM): 88%
- % of control ([9]; at 5 µM): 68%
- % of control ([10]; at 1 µM): 77%
- % of control ([10]; at 5 µM): 57%
